The source of these data is ChEMBL document CHEMBL1201862, “PubChem BioAssay data set” (2004).

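The compound was tested at five concentrations on cells cultured in 96-well plates, with a 48-hour exposure period. GI50 marks 50% less growth.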 Activity calls are given as the source filed them. Rule as the data show it: active = GI50 up to about 1.1 µM and inactive = higher. Some results are limits rather than exact numbers.

Among the test systems are UACC-257; IGROV-1; CCRF-CEM; PC-3; T47D; NCI-H460; MDA-MB-231; HCC 2998; HCT-116; LOX IMVI; NCI/ADR-RES; M14; Hs-578T; NCI-H23; Malme-3M; ACHN; SK-MEL-2; RPMI-8226; SF-295; OVCAR-3.
Test in all cases: DTP human tumour cell line panel, 48 h

Usually GI50 stands for the concentration giving 50% growth inhibition. As for `COc1ccc(/C=C/C(=O)/C=C/c2ccc(OC)cc2)cc1`, the GI50 with UACC-257 was 20 µM (inactive); in the assay on IGROV-1 it was 45.6 µM (inactive); in the assay on CCRF-CEM, 31.8 µM (inactive); with PC-3 it was 69.3 µM (inactive); in the assay with T47D, 55.3 µM (inactive); with NCI-H460, > 100 µM (inactive). Further, the GI50 in the assay with MDA-MB-231 was 89.1 µM (inactive); with HCC 2998, 0.222 µM (active); with HCT-116, 11.2 µM (inactive); in the assay on LOX IMVI it was 40.4 µM (inactive); in the assay on NCI/ADR-RES, 97.1 µM (inactive); in the assay on M14, 21.1 µM (inactive). Moreover, the GI50 with Hs-578T is 47.2 µM (inactive); in the assay with NCI-H23, > 100 µM (inactive); in the assay on Malme-3M, > 100 µM (inactive); with ACHN, 89.1 µM (inactive); in the assay with SK-MEL-2, 33.3 µM (inactive); with RPMI-8226 it was 5.01 µM (inactive). The results for the GI50 with SF-295 and in the assay on OVCAR-3 were > 100 µM (inactive) and 32.1 µM (inactive), respectively.
